According to PubChem BioAssay (NCI):
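Cells were grown in 96-well plates and exposed to each compound for 48 hours at five concentrations; endpoints were interpolated linearly between bracketing concentrations, or set to the highest concentration if not reached. Definition used: TGI = concentration required for complete inhibition of growth.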

Key:
Assay in all cases: growth of human tumour cells (NCI), 48 h
NCI/ADR-RES ovarian = system: NCI/ADR-RES ovarian
UO-31 renal = system: UO-31 renal
SR leukemia = system: SR leukemia
786-0 renal = system: 786-0 renal
SNB-75 CNS = system: SNB-75 CNS
HCT-116 colon = system: HCT-116 colon
SK-MEL-2 melanoma = system: SK-MEL-2 melanoma
HS 578T breast = system: HS 578T breast
BT-549 breast = system: BT-549 breast
NCI-H522 lung = system: NCI-H522 lung
KM12 colon = system: KM12 colon
MDA-MB-231 breast = system: MDA-MB-231 breast
SK-MEL-5 melanoma = system: SK-MEL-5 melanoma
HL-60(TB) leukemia = system: HL-60(TB) leukemia
SF-295 CNS = system: SF-295 CNS
HOP-92 NSCLC = system: HOP-92 NSCLC
T-47D breast = system: T-47D breast
SF-539 CNS = system: SF-539 CNS
OVCAR-3 ovarian = system: OVCAR-3 ovarian
CAKI-1 renal = system: CAKI-1 renal
RPMI-8226 leukemia = system: RPMI-8226 leukemia
HCC-2998 colon = system: HCC-2998 colon
ACHN renal = system: ACHN renal
MDA-N = system: MDA-N
SW-620 colon = system: SW-620 colon
EKVX NSCLC = system: EKVX NSCLC
OVCAR-4 ovarian = system: OVCAR-4 ovarian
IGROV1 ovarian = system: IGROV1 ovarian
MOLT-4 leukemia = system: MOLT-4 leukemia
NCI-H460 lung = system: NCI-H460 lung
OVCAR-8 ovarian = system: OVCAR-8 ovarian
A549 NSCLC = system: A549 NSCLC
SNB-19 CNS = system: SNB-19 CNS
UACC-62 melanoma = system: UACC-62 melanoma
MALME-3M melanoma = system: MALME-3M melanoma
K-562 leukemia = system: K-562 leukemia
DU-145 prostate = system: DU-145 prostate
U251 CNS = system: U251 CNS
SF-268 CNS = system: SF-268 CNS
M14 melanoma = system: M14 melanoma
NCI-H23 lung = system: NCI-H23 lung
SK-MEL-28 melanoma = system: SK-MEL-28 melanoma
SK-OV-3 ovarian = system: SK-OV-3 ovarian
UACC-257 melanoma = system: UACC-257 melanoma
LOX IMVI melanoma = system: LOX IMVI melanoma
PC-3 prostate = system: PC-3 prostate
NCI-H226 lung = system: NCI-H226 lung
HOP-62 NSCLC = system: HOP-62 NSCLC
OVCAR-5 ovarian = system: OVCAR-5 ovarian
A498 renal = system: A498 renal
TK-10 renal = system: TK-10 renal
CCRF-CEM leukemia = system: CCRF-CEM leukemia
COLO 205 colon = system: COLO 205 colon
MDA-MB-435 = system: MDA-MB-435
HCT-15 colon = system: HCT-15 colon
HT29 colon = system: HT29 colon
SN12C renal = system: SN12C renal
RXF 393 renal = system: RXF 393 renal
MCF7 breast = system: MCF7 breast

SMILES: C=C1C(=O)O[C@H]2[C@H]([C@H](C)CCCC(C)=O)O[C@H]([C@@]3(C)CCC(=O)O3)C[C@@H]12
- TGI (NCI/ADR-RES ovarian): > 100 µM
- TGI (UO-31 renal): > 100 µM
- TGI (SR leukemia): > 100 µM
- TGI (786-0 renal): > 100 µM
- TGI (SNB-75 CNS): > 100 µM
- TGI (HCT-116 colon): 85.5 µM
- TGI (SK-MEL-2 melanoma): > 100 µM
- TGI (HS 578T breast): > 100 µM
- TGI (BT-549 breast): > 100 µM
- TGI (NCI-H522 lung): 64.8 µM
- TGI (KM12 colon): > 100 µM
- TGI (MDA-MB-231 breast): > 100 µM
- TGI (SK-MEL-5 melanoma): > 100 µM
- TGI (HL-60(TB) leukemia): > 100 µM
- TGI (SF-295 CNS): > 100 µM
- TGI (HOP-92 NSCLC): > 100 µM
- TGI (T-47D breast): > 100 µM
- TGI (SF-539 CNS): > 100 µM
- TGI (OVCAR-3 ovarian): > 100 µM
- TGI (CAKI-1 renal): 54.3 µM
- TGI (RPMI-8226 leukemia): > 100 µM
- TGI (HCC-2998 colon): > 100 µM
- TGI (ACHN renal): > 100 µM
- TGI (MDA-N): > 100 µM
- TGI (SW-620 colon): > 100 µM
- TGI (EKVX NSCLC): > 100 µM
- TGI (OVCAR-4 ovarian): > 100 µM
- TGI (IGROV1 ovarian): > 100 µM
- TGI (MOLT-4 leukemia): > 100 µM
- TGI (NCI-H460 lung): > 100 µM
- TGI (OVCAR-8 ovarian): > 100 µM
- TGI (A549 NSCLC): > 100 µM
- TGI (SNB-19 CNS): > 100 µM
- TGI (UACC-62 melanoma): > 100 µM
- TGI (MALME-3M melanoma): 54.3 µM
- TGI (K-562 leukemia): > 100 µM
- TGI (DU-145 prostate): > 100 µM
- TGI (U251 CNS): > 100 µM
- TGI (SF-268 CNS): 9.34 µM
- TGI (M14 melanoma): > 100 µM
- TGI (NCI-H23 lung): > 100 µM
- TGI (SK-MEL-28 melanoma): > 100 µM
- TGI (SK-OV-3 ovarian): > 100 µM
- TGI (UACC-257 melanoma): > 100 µM
- TGI (LOX IMVI melanoma): 64.4 µM
- TGI (PC-3 prostate): > 100 µM
- TGI (NCI-H226 lung): 80.5 µM
- TGI (HOP-62 NSCLC): > 100 µM
- TGI (OVCAR-5 ovarian): > 100 µM
- TGI (A498 renal): > 100 µM
- TGI (TK-10 renal): 52.3 µM
- TGI (CCRF-CEM leukemia): 83.5 µM
- TGI (COLO 205 colon): > 100 µM
- TGI (MDA-MB-435): > 100 µM
- TGI (HCT-15 colon): > 100 µM
- TGI (HT29 colon): > 100 µM
- TGI (SN12C renal): > 100 µM

SMILES: Cc1nnc(CC#N)n1NC(=O)CC#N
- TGI (NCI/ADR-RES ovarian): > 100 µM
- TGI (UO-31 renal): > 100 µM
- TGI (SR leukemia): > 100 µM
- TGI (786-0 renal): > 100 µM
- TGI (SNB-75 CNS): > 100 µM
- TGI (HCT-116 colon): > 100 µM
- TGI (SK-MEL-2 melanoma): > 100 µM
- TGI (HS 578T breast): > 100 µM
- TGI (BT-549 breast): > 100 µM
- TGI (NCI-H522 lung): > 100 µM
- TGI (KM12 colon): > 100 µM
- TGI (MDA-MB-231 breast): > 100 µM
- TGI (SK-MEL-5 melanoma): > 100 µM
- TGI (RXF 393 renal): > 100 µM
- TGI (HL-60(TB) leukemia): > 100 µM
- TGI (SF-295 CNS): > 100 µM
- TGI (HOP-92 NSCLC): > 100 µM
- TGI (T-47D breast): > 100 µM
- TGI (SF-539 CNS): > 100 µM
- TGI (OVCAR-3 ovarian): > 100 µM
- TGI (CAKI-1 renal): > 100 µM
- TGI (HCC-2998 colon): > 100 µM
- TGI (ACHN renal): > 100 µM
- TGI (MDA-N): > 100 µM
- TGI (SW-620 colon): > 100 µM
- TGI (EKVX NSCLC): > 100 µM
- TGI (MCF7 breast): > 100 µM
- TGI (IGROV1 ovarian): > 100 µM
- TGI (MOLT-4 leukemia): > 100 µM
- TGI (NCI-H460 lung): > 100 µM
- TGI (OVCAR-8 ovarian): > 100 µM
- TGI (A549 NSCLC): > 100 µM
- TGI (SNB-19 CNS): > 100 µM
- TGI (UACC-62 melanoma): > 100 µM
- TGI (MALME-3M melanoma): > 100 µM
- TGI (K-562 leukemia): > 100 µM
- TGI (DU-145 prostate): > 100 µM
- TGI (U251 CNS): > 100 µM
- TGI (SF-268 CNS): > 100 µM
- TGI (M14 melanoma): > 100 µM
- TGI (NCI-H23 lung): > 100 µM
- TGI (SK-MEL-28 melanoma): > 100 µM
- TGI (SK-OV-3 ovarian): > 100 µM
- TGI (UACC-257 melanoma): > 100 µM
- TGI (LOX IMVI melanoma): > 100 µM
- TGI (PC-3 prostate): > 100 µM
- TGI (HOP-62 NSCLC): > 100 µM
- TGI (OVCAR-5 ovarian): > 100 µM
- TGI (A498 renal): > 100 µM
- TGI (TK-10 renal): > 100 µM
- TGI (CCRF-CEM leukemia): > 100 µM
- TGI (COLO 205 colon): > 100 µM
- TGI (MDA-MB-435): > 100 µM
- TGI (HCT-15 colon): > 100 µM
- TGI (HT29 colon): > 100 µM
- TGI (SN12C renal): > 100 µM

SMILES: COC(=O)/C=C\C(C#N)(C#N)N=Cc1ccsc1
- TGI (NCI/ADR-RES ovarian): > 19.7 µM
- TGI (UO-31 renal): 8.85 µM
- TGI (SR leukemia): 0.645 µM
- TGI (786-0 renal): 3.02 µM
- TGI (SNB-75 CNS): 29.5 µM
- TGI (HCT-116 colon): 3.57 µM
- TGI (SK-MEL-2 melanoma): 30.7 µM
- TGI (HS 578T breast): > 68 µM
- TGI (BT-549 breast): 5.7 µM
- TGI (NCI-H522 lung): 1.99 µM
- TGI (KM12 colon): 28.9 µM
- TGI (MDA-MB-231 breast): 12.2 µM
- TGI (SK-MEL-5 melanoma): 15.5 µM
- TGI (RXF 393 renal): 3.72 µM
- TGI (SF-295 CNS): 27.5 µM
- TGI (HOP-92 NSCLC): 3.7 µM
- TGI (T-47D breast): 4.17 µM
- TGI (OVCAR-3 ovarian): 5.37 µM
- TGI (CAKI-1 renal): 6.07 µM
- TGI (RPMI-8226 leukemia): 3.28 µM
- TGI (HCC-2998 colon): 29.6 µM
- TGI (ACHN renal): 2.72 µM
- TGI (MDA-N): 8.66 µM
- TGI (SW-620 colon): 3.34 µM
- TGI (EKVX NSCLC): 12.5 µM
- TGI (OVCAR-4 ovarian): 32.5 µM
- TGI (MCF7 breast): 5.05 µM
- TGI (IGROV1 ovarian): 20.9 µM
- TGI (MOLT-4 leukemia): 5 µM
- TGI (NCI-H460 lung): 33.6 µM
- TGI (OVCAR-8 ovarian): 13.3 µM
- TGI (A549 NSCLC): 33 µM
- TGI (SNB-19 CNS): 27.6 µM
- TGI (UACC-62 melanoma): 9.69 µM
- TGI (MALME-3M melanoma): 3.5 µM
- TGI (K-562 leukemia): 1.62 µM
- TGI (DU-145 prostate): 21.5 µM
- TGI (U251 CNS): 29.7 µM
- TGI (SF-268 CNS): 46.2 µM
- TGI (M14 melanoma): 8.23 µM
- TGI (NCI-H23 lung): 22.1 µM
- TGI (SK-MEL-28 melanoma): 7.43 µM
- TGI (SK-OV-3 ovarian): 31.3 µM
- TGI (UACC-257 melanoma): 9.35 µM
- TGI (LOX IMVI melanoma): 5.71 µM
- TGI (PC-3 prostate): 25.4 µM
- TGI (NCI-H226 lung): 45.3 µM
- TGI (HOP-62 NSCLC): 30.9 µM
- TGI (OVCAR-5 ovarian): 16.2 µM
- TGI (A498 renal): 35.3 µM
- TGI (TK-10 renal): 5.96 µM
- TGI (CCRF-CEM leukemia): 0.93 µM
- TGI (COLO 205 colon): 2.73 µM
- TGI (MDA-MB-435): 12.5 µM
- TGI (HCT-15 colon): 2.9 µM
- TGI (HT29 colon): 8.97 µM
- TGI (SN12C renal): 9.73 µM
